From patent US20090233979A1, “Indole Derivatives and Their Use as Thyroid Receptor Ligands” (KARO BIO AB, priority 2006, published 2009)
pIC50: −log10 of the molar value.

Legend:
human ThRβ1 = target: T1, human ThRβ1 (Homo sapiens, UniProt P10828); experiment: Reporter cell line (TRAF) assay, CHO/hThRβ1, alkaline phosphatase reporter; type: cell-based; settings: CHO/hThRβ1 reporter cells, 48 hours incubation; read-out: β % agonism
T1 construct: The cDNAs encoding the full length human ThRα1 and ThRβ1; expressed in transfected cells
T1 sequence (P10828 1-461): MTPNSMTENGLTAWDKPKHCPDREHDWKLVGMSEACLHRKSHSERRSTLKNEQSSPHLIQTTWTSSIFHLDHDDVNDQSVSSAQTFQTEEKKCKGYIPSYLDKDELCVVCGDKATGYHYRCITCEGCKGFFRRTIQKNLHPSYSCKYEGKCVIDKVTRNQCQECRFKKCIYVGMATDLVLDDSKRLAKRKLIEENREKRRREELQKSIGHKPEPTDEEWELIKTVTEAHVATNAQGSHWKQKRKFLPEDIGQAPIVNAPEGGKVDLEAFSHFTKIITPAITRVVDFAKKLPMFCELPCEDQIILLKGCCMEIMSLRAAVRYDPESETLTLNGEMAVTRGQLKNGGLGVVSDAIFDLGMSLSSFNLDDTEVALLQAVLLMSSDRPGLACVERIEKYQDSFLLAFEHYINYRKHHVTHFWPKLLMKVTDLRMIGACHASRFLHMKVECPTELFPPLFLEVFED
Excerpt: Vector Constructs, Generation of Reporter Cell Lines (TRAF), and Assay Procedure.
The cDNAs encoding the full length human ThRα1 and ThRβ1 were cloned in the mammalian expression vector pMT-hGH. The pDR4-ALP reporter vector contains one copy of the direct repeat sequence AGGTCA nnnnAGGTCA, fused upstream of the core promoter sequences of the mouse mammary tumor virus long terminal repeat (MMTV), replacing the glucocorticoid response elements. The DR4-MMTV promoter fragment was then cloned in the 5′ end of the cDNA encoding human placental alkaline phosphatase (ALP), followed in the 3′-end by the polyA-signal sequence of the human growth hormone gene. Chinese hamster ovary (CHO) K1 cells (ATCC No. CCL 61) were transfected in two steps, first with the receptor expression vectors pMT-hThRα1 and pMT-ThRβ1, respectively, and the drug resistance vector pSV2-Neo, and in the second step, with the reporter vector pDR4-ALP and the drug resistance vector pKSV-Hyg. Individual drug resistant clones were isolated and selected based on T3 inducibility. One stable reporter cell clone each of CHO/hThRα1 and CHO/hThRβ1 were chosen for further study in response to various thyroid hormone agonists.
CHO/hThRα1 and CHO/hThRβ1 were seeded in growth medium (Coon's/F12, 10% L-3,5,3′-triiodothyronine and L-thyroxine depleted FCS, 2 mM L-glutamine) in 96-well plates at 20×10^3 cells per well. After 24 hour incubation at 37° C. in humidified chambers, at 5% CO2, conditioned medium was replaced by induction medium (OptiMEM, 2 mM L-glutamine, […] gentamycin) and cells were exposed to the test compounds at serial dilutions, at final DMSO concentration of 0.5%, or to serial dilution of T3 (positive control), to assess agonist activity of test compounds.
In order to examine antagonistic effect of test compounds, CHO/hThRα1 and […] were exposed to serial dilution of the compounds in the presence of 1 nM T3 (CHO/hThRα1) or 3 nM T3 (CHO/hThRβ1).
After 48 hours incubation at 37° C. in humidified chambers at 5% CO2 the level of alkaline phosphatase expressed and secreted into the cell culture medium was analyzed by chemiluminescence on MicroBeta Trilux.

hTRβ = target: T2, hTRβ (Homo sapiens, UniProt P10828); experiment: TR competition binding assay with filter separation; settings: for pIC50: competition with tracer 125I-T3, full length hTRβ, read-out: TR-β IC50; for binding to the TR-β receptor and/or agonistic activity compared to compounds lacking a substituent in the 2-position on the indole ring: versus Comparative Examples 1, 3, 4
T2 sequence (P10828 1-461): T1 sequence (P10828 1-461)
Procedure: TR Competition Binding Assay with Filter Separation
Compounds are tested for their ability to compete with the tracer ^125I-T3 for binding to full length hTRα and hTRβ. Receptor extracts and tracer are diluted in assay buffer (17 mM K2HPO4, 3 mM KH2PO4, 400 mM KCl, 1 mM MgCl2, 0.5 mM EDTA and 8.7% glycerol). ^125I-T3 is diluted to a final concentration of 0.2 nM and receptor is diluted to reach a final count in Trilux Microbeta of approximately 10000 ccpm. […] To 96 well microtiter plates are 100 μl tracer, 4 μl test compound dilution series and 100 μl receptor dilution added. The assay plates are incubated at +4° C. over night (app. 16 hrs incubation). Receptor bound and free tracer are separated over a glass fiber filter ([…] B, PerkinElmer)) on a Tomtec Cellharvester with 18 mM K2HPO4, 2 mM KH2PO4, 0.5 mM EDTA wash buffer. The filters are dried at 60° C. for 1 hour and then merged with a scintillant wax (MELTILEX, PerkinElmer) on a Wallac Microsealer before measuring in a Trilux Microbeta. IC50s, the concentration test compound needed to decrease tracer binding by 50 percent, are generated via analysis of data in XLfit version 2.0 or later with a four parameter logistic model.

For `COc1ccc(-c2[nH]c3ccc(Oc4c(Cl)cc(CCC(=O)O)cc4Cl)cc3c2C(C)C)cc1` [Comparative Example 2, 3-{3,5-Dichloro-4-[3-isopropyl-2-(4-methoxy-phenyl)-1H-indol-5-yloxy]-phenyl}-propionic acid, reference compound], which Emax (human ThRβ1) is on record?
Its Emax is 80.2%.

What about the pIC50 (hTRβ) of the same compound?
The pIC50 was 7.29.

How did the Emax (human ThRβ1) turn out when `COc1ccc(-c2[nH]c3ccc(Oc4c(Br)cc(CCC(=O)O)cc4Br)cc3c2C)cc1` [Example 3, 3-(3,5-dibromo-4-{[2-(4-methoxyphenyl)-3-methyl-1H-indol-5-yl]oxy}phenyl)propanoic acid] was run?
The Emax was 97.5%.

And the pIC50 (hTRβ)?
Its pIC50 is 8.15.

And the “binding to the TR-β receptor and/or agonistic activity compared to compounds lacking a substituent in the 2-position on the indole ring” value (hTRβ)?
Its value is “improved binding to the TR-β receptor and/or improved agonistic activity”.

How did the Emax (human ThRβ1) turn out when `CCc1c(-c2ccc3c(c2)OCO3)[nH]c2ccc(Oc3c(Cl)cc(CCC(=O)O)cc3Cl)cc12` [Example 8, 3-(4-{[2-(1,3-benzodioxol-5-yl)-3-ethyl-1H-indol-5-yl]oxy}-3,5-dichlorophenyl)propanoic acid] was run?
Its Emax is 76.9%.

What about the pIC50 (hTRβ) of the same compound?
The pIC50 was 8.60.

And the “binding to the TR-β receptor and/or agonistic activity compared to compounds lacking a substituent in the 2-position on the indole ring” value (hTRβ)?
Its value is “improved binding to the TR-β receptor and/or improved agonistic activity”.

What does the source list for `CCc1c(-c2ccc3c(c2)OCO3)[nH]c2ccc(Oc3c(Br)cc(CCC(=O)O)cc3Br)cc12` [Example 9, 3-(4-{[2-(1,3-benzodioxol-5-yl)-3-ethyl-1H-indol-5-yl]oxy}-3,5-dibromophenyl)propanoic acid]?
Emax (human ThRβ1): 70.3%; pIC50 (hTRβ): 9.48; binding to the TR-β receptor and/or agonistic activity compared to compounds lacking a substituent in the 2-position on the indole ring (hTRβ): improved binding to the TR-β receptor and/or improved agonistic activity

Which results are given for `CCc1c(-c2ccc(OC)cc2)[nH]c2ccc(Oc3c(Br)cc(CCC(=O)O)cc3Br)cc12` [Example 10, 3-(3,5-dibromo-4-{[2-(4-methoxyphenyl)-3-ethyl-1H-indol-5-yl]oxy}phenyl)propanoic acid]?
Emax (human ThRβ1): 79.7%; pIC50 (hTRβ): 8.56; binding to the TR-β receptor and/or agonistic activity compared to compounds lacking a substituent in the 2-position on the indole ring (hTRβ): improved binding to the TR-β receptor and/or improved agonistic activity

What does the source list for `CCCc1c(-c2ccc(OC)cc2)[nH]c2ccc(Oc3c(Br)cc(CCC(=O)O)cc3Br)cc12` [Example 13, 3-(3,5-dibromo-4-{[2-(4-methoxyphenyl)-3-propyl-1H-indol-5-yl]oxy}phenyl)propanoic acid]?
Emax (human ThRβ1): 70.7%; pIC50 (hTRβ): 8.05; binding to the TR-β receptor and/or agonistic activity compared to compounds lacking a substituent in the 2-position on the indole ring (hTRβ): improved binding to the TR-β receptor and/or improved agonistic activity

Which results are given for `CCOC(=O)CNc1cc(C)c(Oc2ccc3[nH]cc(C(C)C)c3c2)c(C)c1` [compound 3, reference compound]?
Emax (human ThRβ1): 69.7%; pIC50 (hTRβ): 6.49

Which results are given for `Cc1cc(NCC(=O)O)cc(C)c1Oc1ccc2[nH]cc(C(C)C)c2c1` [compound 4, reference compound]?
Emax (human ThRβ1): 39.7%; pIC50 (hTRβ): 7.37
